From ChEMBL document CHEMBL4339214, “Design, synthesis and biological activity of deuterium-based FFA1 agonists with improved pharmacokinetic profiles” (Bioorg Med Chem Lett, 2019)
The source made the active and inactive calls. No cut-off for these calls is given here.

Experiments:
[1] = Cmax in 12 hrs fasted Sprague-Dawley rat at 3 mg/kg, po administered as single dose measured up to 24 hrs by LC-PDA-MS/MS analysis; format: ADME, organism-based; set-up: dose 3 mg/kg, route oral; settings: in vivo
[2] = biological target: Free fatty acid receptor 1 (Homo sapiens, UniProt O14842); test: Agonist activity at human FFA1 receptor expressed in CHO cells assessed as increase in intracellular calcium levels measured for 1 hr by Fluo 4-AM dye based FLIPR assay; format: functional, cell-based
[3] = AUC (0 to 24 hrs) in 12 hrs fasted Sprague-Dawley rat at 3 mg/kg, po administered as single dose measured up to 24 hrs by LC-PDA-MS/MS analysis; format: ADME, organism-based; set-up: time < 24 hr, dose 3 mg/kg, route oral; settings: in vivo
[4] = Half life in 12 hrs fasted Sprague-Dawley rat at 3 mg/kg, po administered as single dose measured up to 24 hrs by LC-PDA-MS/MS analysis; format: ADME, organism-based; settings: in vivo
[5] = Apparent volume of distribution during terminal phase in 12 hrs fasted Sprague-Dawley rat at 3 mg/kg, po administered as single dose measured up to 24 hrs by LC-PDA-MS/MS analysis; format: ADME, organism-based; settings: in vivo
[6] = test system: Mus musculus; test: Antidiabetic activity in normal ICR mouse assessed as reduction in blood glucose AUC (0 to 120 mins) at 20 mg/kg, po administered 30 mins before oral glucose load by OGTT assay; format: functional, organism-based
[7] = test system: Mus musculus; test: Antidiabetic activity in normal ICR mouse assessed as reduction in blood glucose level at 20 mg/kg, po administered 30 mins before oral glucose load by OGTT assay; format: functional, organism-based
[8] = test system: Mus musculus; test: Induction of hypoglycemia in fasting normal ICR mouse assessed as reduction in blood glucose level at 15 mg/kg, po measured up to 3 hrs post dose; format: organism-based; settings: in vivo
[9] = test system: Mus musculus; test: Induction of hypoglycemia in fasting normal ICR mouse assessed as reduction in blood glucose level at 60 mg/kg, po measured up to 3 hrs post dose; format: organism-based; settings: in vivo

Sequence of Free fatty acid receptor 1 (O14842 whole entry): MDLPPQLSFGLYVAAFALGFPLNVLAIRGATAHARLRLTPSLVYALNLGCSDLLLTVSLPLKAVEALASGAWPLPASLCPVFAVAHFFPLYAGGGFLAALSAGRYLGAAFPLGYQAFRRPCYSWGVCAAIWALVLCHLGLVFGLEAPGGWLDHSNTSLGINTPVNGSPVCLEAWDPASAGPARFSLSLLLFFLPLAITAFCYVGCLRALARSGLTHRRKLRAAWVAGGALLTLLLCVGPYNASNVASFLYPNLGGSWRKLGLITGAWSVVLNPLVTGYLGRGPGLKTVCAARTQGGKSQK

Cmax [1]	EC50 [2]	AUC [3]	t1/2 [4]	Vz/F [5]	SMILES	Activity [6]	Activity ([6]; tested as the 2H-labelled form)	Activity [7]	Activity ([7]; tested as the 2H-labelled form)	Activity [8]	Activity [9]
2360 ng/mL	28.9 nM	31694.16 ng·h/mL	2.58 h	0.057 L/kg	[2H]C([2H])(Cc1ccc(OCc2cccc(-c3c(C)noc3C)c2)cc1)C(=O)O						
1730 ng/mL	32.5 nM	14063.25 ng·h/mL	1.75 h	0.074 L/kg	Cc1noc(C)c1-c1cccc(COc2ccc(CCC(=O)O)c(F)c2)c1	inactive	Active	inactive	Active		
					COc1ccc(Cl)cc1C(=O)NCCc1ccc(S(=O)(=O)NC(=O)NC2CCCCC2)cc1 [GLYBURIDE]					Toxic	
2910 ng/mL	37.4 nM	46492.43 ng·h/mL	3.14 h	0.049 L/kg	[2H]C([2H])(Cc1ccc(OCc2cccc(-c3c(C)noc3C)c2)cc1F)C(=O)O						Non-Toxic
